Results from article PMC8991199, “Promiscuity mapping of the S100 protein family using a high-throughput holdup assay” (Scientific Reports, 2022).

What was measured:
Assay type in all cases: binding
[1] = molecular target: T1, S100A16 (Homo sapiens, UniProt Q96FQ6); experiment: direct fluorescence polarization (FP), S100A16; conditions: S100A16, 50 nM labeled foldamer, 20 mM HEPES pH 7.5, 150 mM NaCl, 1 mM CaCl2, 0.5 mM TCEP, 0.01% Tween20, quadratic fit, mean ± SEM, three technical repeats, threshold 1 mM
T1 sequence (Q96FQ6 1-103): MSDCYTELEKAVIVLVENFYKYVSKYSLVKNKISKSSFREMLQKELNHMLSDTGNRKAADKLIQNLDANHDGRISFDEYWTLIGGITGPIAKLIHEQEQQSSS
Description: (§1) HTP (and also low-throughput) measurements generally need to be validated by an orthogonal approach to eliminate experimental artifacts. […] This way, we chose WL, IF, WW, YF, IL, VL, TW, RF, RR, TI, TM, and after resynthesizing with a fluorescent label at the C-terminus (Figs. S15–S26, Table S1), the S100ome was tested against the labeled foldamers by direct fluorescence polarization (FP) (Fig. 3A). In this assay, the association of the fluorescently labeled foldamer and the S100 protein of interest is monitored, through the change in polarization of the emitted light by the fluorophore upon the binding event. In direct FP, the presence of the fluorophore might change the binding affinity of some foldamers. […] Nevertheless, we assumed that the fluorophore would affect all foldamers that target the same binding site to the same degree, because the foldamer scaffold is rigid. Defining the threshold of detection at the dissociation constant of 1 mM, we identified 87 interactions between the selected foldamer fragments and the S100ome out of 220 possible interactions (Table 1, Fig. S4-14).
(§2) Briefly, S100 proteins were cloned into a modified pET15b vector with a TEV protease cleavable N-terminal His6-tag and expressed in Escherichia coli BL21 (DE3) cells, followed by Ni^2+-affinity chromatography. For HU assay, S100 proteins were further purified by either hydrophobic interaction chromatography or ion exchange chromatography without the cleavage of the N-terminal His6-tag applying standard conditions. For direct FP measurements, the N-terminal His6-tag was cleaved, and the S100 proteins were purified by hydrophobic interaction chromatography, ion exchange chromatography or size exclusion chromatography. The quality of the recombinant proteins was checked by SDS-PAGE analysis in all cases. The concentration of the recombinant S100 proteins was determined by UV spectrophotometry using the absorbance of Tyr and Trp residues.
(§3) In direct fluorescence polarization assays, S100 proteins were diluted in a buffer containing 50 nM labeled foldamer, 20 mM HEPES pH 7.5, 150 mM NaCl, 1 mM CaCl2, 0.5 mM TCEP and 0.01% Tween20. The dilution series (50 µl) were divided into three technical repeats and transferred (15 µl) to a 384-well microplate. In competitive fluorescence polarization assays, the buffer applied in direct measurements was supplemented with the S100 protein of interest to reach a saturation of 60–80%. This mixture was titrated with the competitor (i.e. the unlabeled peptide). Fluorescence polarization was measured in 8 different S100 concentrations (one of which contained no S100 protein) on a Synergy H4 plate reader using 485 ± 20 nm and 528 ± 20 nm band-pass filters for excitation and emission, respectively. The Kd values were obtained by fitting the data from the FP measurements with the python-based ProFit software using quadratic and competitive binding equation for direct and competitive FP, respectively. The detection threshold was based on two parameters. First, we rejected all fitted dissociation constants above 1 mM.

[2] = molecular target: T2, S100A3 (Homo sapiens, UniProt P33764); experiment: direct fluorescence polarization (FP), S100A3; conditions: S100A3, 50 nM labeled foldamer, 20 mM HEPES pH 7.5, 150 mM NaCl, 1 mM CaCl2, 0.5 mM TCEP, 0.01% Tween20, quadratic fit, mean ± SEM, three technical repeats, threshold 1 mM
T2 sequence (P33764 1-101): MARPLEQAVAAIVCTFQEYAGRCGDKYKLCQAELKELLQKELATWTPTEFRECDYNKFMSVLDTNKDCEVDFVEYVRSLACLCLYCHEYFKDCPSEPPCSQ
Description: as §1, §2, §3

[3] = molecular target: T3, S100P (Homo sapiens, UniProt P25815); experiment: direct fluorescence polarization (FP), S100P; conditions: 50 nM labeled foldamer, 20 mM HEPES pH 7.5, 150 mM NaCl, 1 mM CaCl2, 0.5 mM TCEP, 0.01% Tween20, quadratic fit, mean ± SEM, three technical repeats, threshold 1 mM
T3 sequence (P25815 1-95): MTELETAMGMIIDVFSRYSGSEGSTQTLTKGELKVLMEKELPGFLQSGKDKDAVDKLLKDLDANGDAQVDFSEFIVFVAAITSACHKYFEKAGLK
Source text: (§4) HTP (and also low-throughput) measurements generally need to be validated by an orthogonal approach to eliminate experimental artifacts. […] In this assay, the association of the fluorescently labeled foldamer and the S100 protein of interest is monitored, through the change in polarization of the emitted light by the fluorophore upon the binding event. In direct FP, the presence of the fluorophore might change the binding affinity of some foldamers. […] Nevertheless, we assumed that the fluorophore would affect all foldamers that target the same binding site to the same degree, because the foldamer scaffold is rigid.
as §2, §3

[4] = molecular target: T4, S100A15 (Homo sapiens, UniProt Q86SG5); experiment: direct fluorescence polarization (FP), S100A15; conditions: S100A15, 50 nM labeled foldamer, 20 mM HEPES pH 7.5, 150 mM NaCl, 1 mM CaCl2, 0.5 mM TCEP, 0.01% Tween20, quadratic fit, mean ± SEM, three technical repeats, threshold 1 mM
T4 sequence (Q86SG5 1-101): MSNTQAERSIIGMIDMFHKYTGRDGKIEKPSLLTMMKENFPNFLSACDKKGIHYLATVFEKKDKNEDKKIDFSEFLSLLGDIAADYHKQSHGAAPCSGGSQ
Description: as §1, §2, §3

[5] = molecular target: T5, S100A1 (Homo sapiens, UniProt P23297); experiment: direct fluorescence polarization (FP), S100A1; conditions: S100A1, 50 nM labeled foldamer, 20 mM HEPES pH 7.5, 150 mM NaCl, 1 mM CaCl2, 0.5 mM TCEP, 0.01% Tween20, quadratic fit, mean ± SEM, three technical repeats, threshold 1 mM
T5 sequence (P23297 1-94): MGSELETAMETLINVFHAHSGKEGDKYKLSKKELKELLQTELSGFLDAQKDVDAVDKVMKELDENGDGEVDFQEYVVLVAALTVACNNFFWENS
Source text: as §4, §2, §3

[6] = molecular target: T6, S100A11 (Homo sapiens, UniProt P31949); experiment: direct fluorescence polarization (FP), S100A11; conditions: S100A11, 50 nM labeled foldamer, 20 mM HEPES pH 7.5, 150 mM NaCl, 1 mM CaCl2, 0.5 mM TCEP, 0.01% Tween20, quadratic fit, mean ± SEM, three technical repeats, threshold 1 mM
T6 sequence (P31949 1-105): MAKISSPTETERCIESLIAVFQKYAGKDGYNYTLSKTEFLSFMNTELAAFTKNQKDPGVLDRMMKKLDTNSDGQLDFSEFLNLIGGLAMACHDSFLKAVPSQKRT
Description: as §1, §2, §3

| SMILES | Kd [1] | Kd [2] | Kd [3] | Kd [4] | Kd [5] | Kd [6] |
| --- | --- | --- | --- | --- | --- | --- |
| CC[C@H](C)[C@@H](CC(=O)N[C@H]1CCCC[C@@H]1C(=O)N[C@H]1CCCC[C@@H]1C(=O)N[C@H](CC(=O)N[C@H]1CCCC[C@@H]1C(=O)NCC(=O)N[C@@H](CCCCNC(=O)c1ccc2c(c1)C1(OC2=O)c2ccc(O)cc2Oc2cc(O)ccc21)C(N)=O)Cc1ccccc1)NC(=O)[C@H]1CCCC[C@@H]1N [fIF] | > 1000 µM | 180 ± 8.4 µM | 140 ± 5.8 µM | > 1000 µM | 210 ± 13 µM | 280 ± 15 µM |
| N=C(N)NCCC[C@@H](CC(=O)N[C@H]1CCCC[C@@H]1C(=O)N[C@H]1CCCC[C@@H]1C(=O)N[C@H](CC(=O)N[C@H]1CCCC[C@@H]1C(=O)NCC(=O)N[C@@H](CCCCNC(=O)c1ccc2c(c1)C1(OC2=O)c2ccc(O)cc2Oc2cc(O)ccc21)C(N)=O)Cc1ccccc1)NC(=O)[C@H]1CCCC[C@@H]1N [fRF] | > 1000 µM | > 1000 µM | 190 ± 17 µM | > 1000 µM | 413 ± 81 µM | 998 ± 217 µM |
| N=C(N)NCCC[C@@H](CC(=O)N[C@H]1CCCC[C@@H]1C(=O)NCC(=O)N[C@@H](CCCCNC(=O)c1ccc2c(c1)C1(OC2=O)c2ccc(O)cc2Oc2cc(O)ccc21)C(N)=O)NC(=O)[C@H]1CCCC[C@@H]1NC(=O)[C@H]1CCCC[C@@H]1NC(=O)C[C@H](CCCNC(=N)N)NC(=O)[C@H]1CCCC[C@@H]1N [fRR] | > 1000 µM | > 1000 µM | > 1000 µM | > 1000 µM | 280 ± 38 µM | > 1000 µM |
| CC(C)C[C@@H](CC(=O)N[C@H]1CCCC[C@@H]1C(=O)NCC(=O)N[C@@H](CCCCNC(=O)c1ccc2c(c1)C1(OC2=O)c2ccc(O)cc2Oc2cc(O)ccc21)C(N)=O)NC(=O)[C@H]1CCCC[C@@H]1NC(=O)[C@H]1CCCC[C@@H]1NC(=O)C[C@H](Cc1c[nH]c2ccccc12)NC(=O)[C@H]1CCCC[C@@H]1N [fWL] | 304 ± 131 µM | > 1000 µM | 75 ± 5.8 µM | 39 ± 2.4 µM | 53 ± 5.2 µM | > 1000 µM |
| NC(=O)[C@H](CCCCNC(=O)c1ccc2c(c1)C1(OC2=O)c2ccc(O)cc2Oc2cc(O)ccc21)NC(=O)CNC(=O)[C@H]1CCCC[C@@H]1NC(=O)C[C@H](Cc1c[nH]c2ccccc12)NC(=O)[C@H]1CCCC[C@@H]1NC(=O)[C@H]1CCCC[C@@H]1NC(=O)C[C@H](Cc1c[nH]c2ccccc12)NC(=O)[C@H]1CCCC[C@@H]1N [fWW] | > 1000 µM | 310 ± 21 µM | 190 ± 6.9 µM | > 1000 µM | 110 ± 19 µM | > 1000 µM |
| NC(=O)[C@H](CCCCNC(=O)c1ccc2c(c1)C1(OC2=O)c2ccc(O)cc2Oc2cc(O)ccc21)NC(=O)CNC(=O)[C@H]1CCCC[C@@H]1NC(=O)C[C@H](Cc1ccccc1)NC(=O)[C@H]1CCCC[C@@H]1NC(=O)[C@H]1CCCC[C@@H]1NC(=O)C[C@H](Cc1ccc(O)cc1)NC(=O)[C@H]1CCCC[C@@H]1N [fYF] | > 1000 µM | > 1000 µM | 79 ± 5.7 µM | > 1000 µM | 110 ± 9.8 µM | > 1000 µM |

Continued, values first:

| Kd [1] | Kd [2] | Kd [3] | Kd [4] | Kd [5] | Kd [6] | SMILES |
| --- | --- | --- | --- | --- | --- | --- |
| > 1000 µM | > 1000 µM | 330 ± 92 µM | > 1000 µM |  | > 1000 µM | CC[C@H](C)[C@@H](CC(=O)N[C@H]1CCCC[C@@H]1C(=O)N[C@H]1CCCC[C@@H]1C(=O)N[C@H](CC(=O)N[C@H]1CCCC[C@@H]1C(=O)NCC(=O)N[C@@H](CCCCNC(=O)c1ccc2c(c1)C1(OC2=O)c2ccc(O)cc2Oc2cc(O)ccc21)C(N)=O)CC(C)C)NC(=O)[C@H]1CCCC[C@@H]1N [fIL] |
| > 1000 µM | > 1000 µM | > 1000 µM | > 1000 µM | > 1000 µM | > 1000 µM | CC[C@H](C)[C@@H](CC(=O)N[C@H]1CCCC[C@@H]1C(=O)NCC(=O)N[C@@H](CCCCNC(=O)c1ccc2c(c1)C1(OC2=O)c2ccc(O)cc2Oc2cc(O)ccc21)C(N)=O)NC(=O)[C@H]1CCCC[C@@H]1NC(=O)[C@H]1CCCC[C@@H]1NC(=O)C[C@@H](NC(=O)[C@H]1CCCC[C@@H]1N)[C@@H](C)O [fTI] |
| > 1000 µM | > 1000 µM | > 1000 µM | > 1000 µM | > 1000 µM | > 1000 µM | CSCC[C@@H](CC(=O)N[C@H]1CCCC[C@@H]1C(=O)NCC(=O)N[C@@H](CCCCNC(=O)c1ccc2c(c1)C1(OC2=O)c2ccc(O)cc2Oc2cc(O)ccc21)C(N)=O)NC(=O)[C@H]1CCCC[C@@H]1NC(=O)[C@H]1CCCC[C@@H]1NC(=O)C[C@@H](NC(=O)[C@H]1CCCC[C@@H]1N)[C@@H](C)O [fTM] |
| > 1000 µM | > 1000 µM |  | > 1000 µM | 330 ± 20 µM | 570 ± 68 µM | C[C@@H](O)[C@@H](CC(=O)N[C@H]1CCCC[C@@H]1C(=O)N[C@H]1CCCC[C@@H]1C(=O)N[C@H](CC(=O)N[C@H]1CCCC[C@@H]1C(=O)NCC(=O)N[C@@H](CCCCNC(=O)c1ccc2c(c1)C1(OC2=O)c2ccc(O)cc2Oc2cc(O)ccc21)C(N)=O)Cc1c[nH]c2ccccc12)NC(=O)[C@H]1CCCC[C@@H]1N [fTW] |
| > 1000 µM | > 1000 µM | > 1000 µM | > 1000 µM | 97 ± 12 µM | > 1000 µM | CC(C)C[C@@H](CC(=O)N[C@H]1CCCC[C@@H]1C(=O)NCC(=O)N[C@@H](CCCCNC(=O)c1ccc2c(c1)C1(OC2=O)c2ccc(O)cc2Oc2cc(O)ccc21)C(N)=O)NC(=O)[C@H]1CCCC[C@@H]1NC(=O)[C@H]1CCCC[C@@H]1NC(=O)C[C@@H](NC(=O)[C@H]1CCCC[C@@H]1N)C(C)C [fVL] |
